This is an account of results in US5698547A, “Cephalosporin antibiotics” (Microcide Pharmaceuticals, Inc., priority 1995, dated 1997).

SMILES strings stand for the structures. Converted amounts (≈) assume the structure as drawn. Structures can show the parent of a compound that is named as a salt. Where only a bound is given, the exact number is not on record here.

One test has as its system S. aureus ATCC 29213. The test can be described thus: MIC by agar dilution, S. aureus ATCC 29213. Type of test: cell-based. The conditions noted are these: Staphylococcus aureus, ATCC29213; agar dilution; S. aureus ATCC 29213; read-out: MIC. The procedure: (§1) The compounds of the invention were evaluated against several β-lactamresistant bacteria strains by determining the minimum inhibitory concentration (MIC, μg/ml) of each compound with respect to each strain. The MIC, the lowest concentration of antibiotic which inhibits growth of the test organism, was determined by the agar dilution method.
(§2) To determine the MIC for bacterial isolates, the test compound was incorporated in a series of two-fold dilutions into liquified Mueller-Hinton agar. Upon solidification, a number of different bacterial strains were spot inoculated with a replicating device onto the agar surface. […] The procedures used in these studies have been standardized by the National Committee for Clinical Laboratory Standards (NCCLS), as per the NCCLS publication entitled METHODS FOR DILUTION ANTIMICROBIAL SUSCEPTIBILITY TESTS (1991), which is incorporated herein by reference.
(§3) Aliquots of antimicrobial agents were prepared in phosphate buffered saline (PBS) at pH 7.2. Tween 20 or DMSO was used as a solubilizing vehicle as needed. Standard methods of vortexing, sonicating and gentle heat were used to facilitate solubilizing the test agent. Typically, the concentration of the stock solution was 10× that of the highest drug concentration tested. A 1.28 mg/mL stock solution was used with a subsequent highest working concentration of 128 μg/mL. Serial two-fold dilutions were done through ≤0.25 μg/mL. Each drug level was tested in duplicate. Two-fold drug dilutions were done in sterile 50 mL tubes with a final drug volume of 5 mL. Upon the addition of 45 mL of molten agar, a 10-fold dilution resulted. Two, 25 mL. plates were then poured into 15×150 mm square Petri plates with grids and allowed to harden.
(§4) A control plate with a reference drug, either cefotaxime, vancomycin or imipenem, was used as the positive growth control. Stock concentrations of reference antibiotics were prepared and frozen at -80° C. Upon preparation, the control plates were sealed and stored in the refrigerator for up to 1 week prior to use; however, imipenem control plates had to be prepared just prior to use. All test plates were used within 24 hours of preparation.
(§5) Satisfactory results were obtained where the inoculum contained about 10^4 colony forming units (cfu) ±0.5 logs. Starting with pure cultures of the test isolates on agar plates, a few isolated colonies were transferred to a tube of nutrient broth and allowed to grow 4-6 hours at 35°-36° C. to reach log-phase growth. Dropwise addition of the broth culture to PBS was done to match a 0.5 McFarland turbidity standard equal to 10^8 cfu/mL. This was further diluted ten-fold in PBS to reach a working inoculum concentration of 10^7 cfu/mL. When 1 μL of the working inoculum was applied to the agar surface a concentration of about 10^4 cfu per spot was obtained.
(§6) Disposable sterile 1 μL loops were used to inoculate test plates, with each isolate in a designated grid on the agar plate. An alternate method of inoculation involved the use of a replica plater, a device with 48 steel pins allowing the simultaneous inoculation of multiple isolates. After the spots had dried, the plates were incubated at 35°-36° C. for 16-20 hours. Endpoints were assessed as the minimum inhibitory concentration (MIC) of antimicrobial agent.
For orientation: In agar dilution, organisms are placed on agar that contains the substance at set levels.

Test [1] has as its system S. aureus Col (Meth^R) (lac^-). In words: MIC by agar dilution, S. aureus Col (Meth^R) (lac^-). Type of test: cell-based. The conditions noted are these: Staphylococcus aureus; agar dilution; S. aureus Col (Meth^R) (lac^-); read-out: MIC. Summed up:
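Agar dilution per NCCLS (1991): two-fold dilutions from 128 μg/mL down to ≤0.25 μg/mL in Mueller-Hinton agar, each level in duplicate. Spots of about 10^4 cfu of log-phase culture; 16-20 h at 35°-36° C. MIC in μg/ml is the lowest concentration inhibiting growth.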

For test [2], the system named is methicillin-susceptible S. aureus strain ATCC 13709. The test can be described thus: murine model for lethal bacteremic peritonitis. Type of test: in vivo, female Swiss-Webster mice. The conditions noted are these: subcutaneous, 72 h. The procedure:
Groups of 5 female Swiss-Webster mice (Simonsen, Gilroy, Calif.) each are challenged by the intraperitoneal (IP) route with tenfold increments of a bacterial inoculum. This permits calculation of the mean lethal dose (LD50) and the LD100. For preliminary evaluation of a new antibiotic, mice are challenged IP with an LD100 titer of bacteria. In two equal doses administered at the time of bacterial challenge and 2 hours later, groups of 10 mice each are treated subcutaneously with two-fold increments of the test drug and an antibiotic of known efficacy in mice and humans (i.e., positive control). Mice are observed for 72 h. Those alive at 72 h are considered long term survivors. The total drug dose in mg/kg that protects 50% of mice in a group from death is termed the mean protective dose (PD50). PD50 s are similarly determined for several pathogens. The quantitative endpoints for the new drug are then compared with those obtained with reference antibiotics.
Six ten-fold dilutions of inoculum suspended in 0.5 mL of sterilized 7% hog gastric mucin (Sigma) are injected IP in groups of 5 mice each. A control group of 5 mice receive mucin alone. Mice are observed for 72 h. Those alive at 72 h are considered long term survivors. The mean lethal dose (LD50) and 100% lethal dose (LD100) are determined by the probit test.
For antibiotic efficacy studies, mice are challenged IP with bacterial titers that will afford an LD100 for the test strain. In two equal doses administered at the time of bacterial challenge and 2 hours later, groups of 10 mice each are treated by the subcutaneous route (SC) with twofold increments of the test antibiotic; another group is treated similarly with a reference antibiotic of known efficacy in animals and man. Drug doses can range from 0.01 to 512 mg/kg. If the drug is poorly soluble, Tween 20 or propylene glycol will be employed to solubilize the drug. Animals are observed for 72 h. The 50% protective dose (PD50) is calculated in mg/kg by the probit method. The PD50 is the same as the 50% effective dose (ED50) and the 50% curative dose (CD50). Samples of blood from the hearts of all animals that die and from half the mice that survive are cultured on brain-heart infusion agar. Animals that received a protective dosage of the test drug will be alive at 72 h, although they may appear moderately ill to very ill during the observation period. […] Most of these mice will die within 6 to 48 h. Those alive at 72 h will be considered long term survivors.
(Compound numbers correspond to those in MIC tables; data
reported for challenge with methicillin-susceptible S. aureus

Test [3] relates to S. aureus Col8A (Meth^S) (lac^-). In words: MIC by agar dilution, S. aureus Col8A (Meth^S) (lac^-). Type of test: cell-based. The conditions noted are these: Staphylococcus aureus; agar dilution; S. aureus Col8A (Meth^S) (lac^-); read-out: MIC. The procedure: as §1, §2, §3, §4, §5, §6
The novel agents of this invention are notable for their enhanced activity against S. aureus Col and Enterococci (E. faecium and E. faecalis). The S. aureus Col strain is a high-level PBP2a producer, whereas S. aureus Col 8A, its isogenic partner, lacks PBP2a. […] Thus, the compounds of the present invention are effective against PBP2a-producing bacteria.

In general, MIC refers to the lowest concentration that inhibits growth of the organism. As for `O=C(CS/C=C\Cl)N[C@@H]1C(=O)N2C(C(=O)O)=C(Sc3ccnn3-c3ccccc3)CS[C@H]12` [Cmpd 131, (7R)-7-[((Z-2-Chlorovinyl)thioacetyl)amino]-3-(1-N-phenylpyrazol-5-ylthio)-3-cephem-4-carboxylic acid], the results for the MIC (in the test with S. aureus ATCC 29213; in test [1]) were less than 0.06 µg/mL and 1 µg/mL (≈ 1.96 µM), respectively. Besides, the Mortality is recorded as 9/10 in test [2] (dose 0.625 mg/kg); 7/10 in test [2] (dose 1.25 mg/kg); 4/10 in test [2] (dose 2.5 mg/kg); 0/10 in test [2] (dose 5 mg/kg); 0/10 in test [2] (dose 10 mg/kg).

Regarding `O=C(COc1ccccc1)N[C@@H]1C(=O)N2C(C(=O)O)=C(Sc3ccnn3-c3ccccc3)CS[C@H]12` [Cmpd 112, (7R)-7-[(phenyloxyacetyl)amino]-3-(1-N-phenylpyrazol-5-ylthio)-3-cephem-4-carboxylic acid], the figures for the MIC (in the test with S. aureus ATCC 29213; in test [1]; in test [3]) were not above 0.06 µg/mL, 4 µg/mL (≈ 7.87 µM) and not above 0.06 µg/mL, respectively.

Regarding `CC(C)N=C(NC(C)C)SCC(=O)N[C@@H]1C(=O)N2C(C(=O)O)=C(Sc3ccccc3CSC(=N)N)CS[C@H]12` [Cmpd 125, (7R)-7-[((N,N'-diisopropylisothiouronium)acetyl)amino]-3-(2-isothiouroniummethylphenylthio)-3-cephem-4-carboxylate, trifluoroacetic acid salt], the MIC in test [1] came out at 4 µg/mL. The Mortality in test [2] (dose 0.625 mg/kg) is 9/10; in test [2] (dose 1.25 mg/kg), 10/10; in test [2] (dose 2.5 mg/kg), 7/10; in test [2] (dose 5 mg/kg) it was 4/9; in test [2] (dose 10 mg/kg) it was 7/10.

For the compound `N#Cc1ncccc1SC1=C(C(=O)O)N2C(=O)[C@@H](NC(=O)Cc3ccccc3)[C@H]2SC1` [Cmpd 102, (7R)-7-[(Phenylacetyl)amino]-3-(2-cyanopyridin-3-ylthio)-3-cephem-4-carboxylic acid], the MIC in test [1] is 4 µg/mL (≈ 8.84 µM). In addition, the Mortality in test [2] (dose 0.3125 mg/kg) is 10/10; in test [2] (dose 0.625 mg/kg) it was 8/10; in test [2] (dose 1.25 mg/kg), 7/10; in test [2] (dose 2.5 mg/kg), 5/10; in test [2] (dose 5 mg/kg) it was 0/10.

Consider `CCC(CC)O/N=C(\C(=O)N[C@@H]1C(=O)N2C(C(=O)O)=C(Sc3ccnn3-c3ccccc3)CS[C@H]12)c1csc(N)n1` [Cmpd 104, (7R)-7-[(Z)-2-(aminothiazol-4-yl)-2-(3-pentyloxyimino)acetamido]-3-(1-N-phenylpyrazol-5-ylthio)-3-cephem-4-carboxylic acid], for which, in test [1], the MIC came out at 2 µg/mL (≈ 3.26 µM). Besides, the Mortality is given as 6/10 in test [2] (dose 0.625 mg/kg); 10/10 in test [2] (dose 1.25 mg/kg); 8/10 in test [2] (dose 2.5 mg/kg); 8/10 in test [2] (dose 5 mg/kg); 9/10 in test [2] (dose 10 mg/kg).

Take `Cc1nnc(SCC(=O)N[C@@H]2C(=O)N3C(C(=O)O)=C(Sc4ccnn4-c4ccccc4)CS[C@H]23)s1` [Cmpd 118]: the MIC in test [1] was 4 µg/mL (≈ 7.32 µM). Besides, the Mortality in test [2] (dose 0.625 mg/kg) is reported as 8/10; in test [2] (dose 1.25 mg/kg), 6/10; in test [2] (dose 2.5 mg/kg), 8/10; in test [2] (dose 5 mg/kg) it was 4/10; in test [2] (dose 10 mg/kg), 2/10.

Take `N#CCC(=O)N[C@@H]1C(=O)N2C(C(=O)O)=C(Sc3ccnn3-c3ccccc3)CS[C@H]12` [Cmpd 88, (7R)-7-[(Cyanoacetyl)amino]-3-(1-N-phenylpyrazol-5-ylthio)-3-cephem-4-carboxylic acid]: the MIC in test [1] was determined as 4 µg/mL (≈ 9.06 µM). For the same compound, the Mortality in test [2] (dose 0.625 mg/kg) is 2/10; in test [2] (dose 1.25 mg/kg), 1/10; in test [2] (dose 2.5 mg/kg), 0/10; in test [2] (dose 5 mg/kg) it was 0/10; in test [2] (dose 10 mg/kg), 0/10.

`CSCC(=O)N[C@@H]1C(=O)N2C(C(=O)O)=C(Sc3ccnn3-c3ccccc3)CS[C@H]12` [Cmpd 106, (7R)-7-[(methylthioacetyl)amino]-3-(1-N-phenylpyrazol-5-ylthio)-3-cephem-4-carboxylic acid]: the MIC in test [1] was found to be 1 µg/mL (≈ 2.16 µM). Besides, the Mortality in test [2] (dose 0.1562 mg/kg) is 9/10; in test [2] (dose 0.3125 mg/kg), 9/10; in test [2] (dose 0.625 mg/kg), 6/10; in test [2] (dose 1.25 mg/kg), 2/10; in test [2] (dose 2.5 mg/kg), 1/10.

`Nc1nc(/C(=N/OC2CCCC2)C(=O)N[C@@H]2C(=O)N3C(C(=O)O)=C(Sc4ccnn4-c4ccccc4)CS[C@H]23)cs1` [Cmpd 89, (7R)-7-[(Z)-2-(aminothiazol-4-yl)-2-(cyclopentyloxyimino)acetamido]-3-(1-N-phenylpyrazol-5-ylthio)-3-cephem-4-carboxylic acid]: the MIC in test [1] amounted to 2 µg/mL (≈ 3.27 µM). In addition, the Mortality in test [2] (dose 0.625 mg/kg) was 9/10; in test [2] (dose 1.25 mg/kg) it was 9/10; in test [2] (dose 2.5 mg/kg), 9/10; in test [2] (dose 5 mg/kg), 8/10; in test [2] (dose 10 mg/kg), 8/10.

With `N#CCSCC(=O)N[C@@H]1C(=O)N2C(C(=O)O)=C(Sc3ccnn3-c3ccccc3)CS[C@H]12` [Cmpd 122, (7R)-7-[(cyanomethylthioacetyl)amino]-3-(1-N-phenylpyrazol-5-ylthio)-3-cephem-4-carboxylic acid], in test [1], the minimal inhibitory concentration (MIC) was determined as 4 µg/mL (≈ 8.2 µM). The Mortality in test [2] (dose 0.625 mg/kg) was 8/10; in test [2] (dose 1.25 mg/kg), 6/10; in test [2] (dose 2.5 mg/kg) it was 0/10; in test [2] (dose 5 mg/kg) it was 0/10; in test [2] (dose 10 mg/kg), 0/10.
